{"source": "patent US11311522B1", "about": "(Cavion, Inc., priority 2018, dated 2022)", "key": {"[1]": {"assay": "90-day oral toxicology in rats", "conditions": "both, rat, in vivo"}, "[2]": {"assay": "Off-target panel of enzyme and receptor binding sites, ion channels, transporters", "conditions": "10 μM, over 170 targets"}, "[3]": {"assay": "Exploratory embryofetal development study in rabbits"}, "in vivo [4]": {"assay": "in vivo", "conditions": "rat, po"}, "[5]": {"assay": "Pharmacokinetics in rhesus monkeys", "format": "in vivo, rhesus monkey", "protocol": "The validity and reproducibility of the assays were determined, and the precision and accuracy for calibration standards and quality control samples were examined. […] The analytes were stable in plasma under the storage and assay conditions. […] Assay performances were satisfactory and met acceptance criteria for system performance suitability, quantitation range, calibration linearity, assay accuracy and precision, and assay recovery."}, "cardiovascular function": {"test_system": "cardiovascular function", "assay": "Cardiovascular function in anesthetized vagotomized dogs, IV", "format": "in vivo, dog", "conditions": "10 mg/kg IV"}, "in vivo [6]": {"assay": "in vivo", "conditions": "Beagle, dog, in vivo, po"}, "[7]": {"assay": "Phase 1 single-dose pharmacokinetics (PN001, PN002/Part I, PN003, PN005)", "format": "in vivo, human", "conditions": "for Cmax / AUC(0-t): male, human, plasma, oral; for AUC(0-t): read-out: AUC0-24"}, "[8]": {"molecular_target": "T1, breast cancer resistance protein (BCRP) (Homo sapiens, UniProt Q9UNQ0)", "T1 sequence (Q9UNQ0 1-655)": "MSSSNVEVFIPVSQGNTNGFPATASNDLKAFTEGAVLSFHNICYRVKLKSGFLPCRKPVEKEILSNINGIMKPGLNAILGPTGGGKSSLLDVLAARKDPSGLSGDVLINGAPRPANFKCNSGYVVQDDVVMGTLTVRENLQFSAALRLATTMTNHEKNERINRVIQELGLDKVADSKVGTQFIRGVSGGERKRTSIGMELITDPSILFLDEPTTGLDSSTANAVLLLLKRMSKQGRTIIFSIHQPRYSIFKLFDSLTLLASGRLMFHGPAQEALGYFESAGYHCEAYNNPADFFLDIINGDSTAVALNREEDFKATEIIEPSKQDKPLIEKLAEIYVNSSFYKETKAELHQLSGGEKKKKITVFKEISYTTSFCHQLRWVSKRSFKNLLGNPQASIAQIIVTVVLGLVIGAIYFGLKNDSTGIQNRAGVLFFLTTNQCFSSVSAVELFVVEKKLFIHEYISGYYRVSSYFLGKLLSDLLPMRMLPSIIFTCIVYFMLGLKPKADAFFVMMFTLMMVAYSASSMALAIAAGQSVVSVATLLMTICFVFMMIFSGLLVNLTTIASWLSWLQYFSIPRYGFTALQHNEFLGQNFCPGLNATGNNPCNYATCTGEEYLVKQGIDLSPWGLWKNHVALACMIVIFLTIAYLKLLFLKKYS", "assay": "BCRP transport", "format": "in vitro ADME", "conditions": "30 μM", "source_text": "Glucuronide conjugates of the oxygenated metabolites are detected in human, monkey, and dog hepatocyte preparations. […] However, the abundance of CYP3A5, CYP2C19, and CYP2D6 in human liver microsomes is low (2%-5%) relative to the primary contributors, CYP3A4 (˜30%) and CYP2C9 (˜20%). […] Information on reproductive and developmental toxicology was obtained in a 28-day pivotal female fertility study in rats and in preliminary embryo-fetal development studies in rats and rabbits."}, "[9]": {"conditions": "Dutch Belted rabbit, oral gavage GD 7 through GD 20"}, "[10]": {"conditions": "Monkey, IV 2 mg/kg, mean (SD), 3 animals"}}, "note": "Where two headings read alike, the source gives them in different places."}
{"smiles": "CC(C)c1ccc(CC(=O)N[C@H](C)c2ccc(OCC(F)(F)F)cn2)cc1", "note": "[CX-8998]", "values": [{"measurement": "NOAEL at 90 days", "setting": "[1]; Sprague-Dawley, po", "value": 300, "unit": "mg/kg/day"}, {"measurement": "NOAEL at 90 days", "setting": "[1]; oral", "value": 300, "unit": "mg/kg/day"}, {"measurement": "Off-target effects", "setting": "[2]", "value": "No off-target effects"}, {"measurement": "Developmental toxicity", "setting": "[3]; 30, 100, or 300 mg/kg/day", "value": "No evidence of developmental toxicity"}, {"measurement": "dose at which maternal toxicity was excessive", "setting": "[3]; [9]", "value": 1000, "unit": "mg/kg/day"}, {"measurement": "dose at which maternal toxicity was observed", "setting": "[3]; [9]", "value": "≥30 mg/kg/day and was excessive at"}, {"measurement": "Doses with maternal toxicity", "setting": "[3]; rabbit, in vivo", "value": "≥ 30", "unit": "mg/kg/day"}, {"measurement": "half-life", "setting": "in vivo [4]; female, 5 mg/kg/day", "value": 1.6, "unit": "h"}, {"measurement": "half-life", "setting": "in vivo [4]; female, 100 mg/kg/day", "value": 9.25, "unit": "h"}, {"measurement": "half-life", "setting": "in vivo [4]; female, 300 mg/kg/day", "value": 5.28, "unit": "h"}, {"measurement": "half-life", "setting": "in vivo [4]; male, 15 mg/kg/day", "value": 2.87, "unit": "h"}, {"measurement": "Tmax", "setting": "in vivo [4]; male, 100 mg/kg/day", "value": 2, "unit": "h"}, {"measurement": "half-life", "setting": "in vivo [4]; male, 100 mg/kg/day", "value": 3.72, "unit": "h"}, {"measurement": "half-life", "setting": "in vivo [4]; male, 300 mg/kg/day", "value": 5.68, "unit": "h"}, {"measurement": "CL", "setting": "[5]; [10]", "value": "15.9 (2.5) mL/min/kg"}, {"measurement": "t½", "setting": "[5]; [10]", "value": "1.3 (0.3) hr"}, {"measurement": "F", "setting": "[5]; Monkey, oral 20 mg/kg vs IV 2 mg/kg, mean (SD)", "value": "2.8 (10.) %"}, {"measurement": "Plasma clearance", "setting": "[5]; rhesus monkey, in vivo", "value": 0.96, "unit": "L/h/kg"}, {"measurement": "Vdss, mean", "setting": "[5]; rhesus monkey, in vivo", "value": 0.9, "unit": "L/kg"}, {"measurement": "half-life", "setting": "[5]; rhesus monkey, in vivo", "value": 1.3, "unit": "h"}, {"measurement": "Decrease in mean arterial pressure", "setting": "cardiovascular function", "value": 15, "unit": "%"}, {"measurement": "Increase in PR interval", "setting": "cardiovascular function", "value": 7, "unit": "%"}, {"measurement": "AUC", "setting": "in vivo [6]; female, 300 mg/kg/day", "value": 2080, "unit": "µM·h"}, {"measurement": "Cmax", "setting": "in vivo [6]; female, 300 mg/kg/day", "value": 158, "unit": "µM"}, {"measurement": "AUC", "setting": "in vivo [6]; male, 3 mg/kg/day", "value": 62.5, "unit": "µM·h"}, {"measurement": "Cmax", "setting": "in vivo [6]; male, 3 mg/kg/day", "value": 8.4, "unit": "µM"}, {"measurement": "Cmax", "setting": "in vivo [6]; male, 30 mg/kg/day", "value": 73.5, "unit": "µM"}, {"measurement": "Cmax", "setting": "in vivo [6]; male, 300 mg/kg/day", "value": 253, "unit": "µM"}, {"measurement": "Cmax", "setting": "[7]; 1 mg, PN001/Part I, males 20-40 y, single 1 mg fed, read-out: Cmax", "value": 0.056, "unit": "µM"}, {"measurement": "Cmax", "setting": "[7]; 1 mg, PN001/Part I, males 20-40 y, single 1 mg, morning fasted, read-out: Cmax", "value": 0.104, "unit": "µM"}, {"measurement": "Cmax", "setting": "[7]; 1 mg, fasted, read-out: Cmax, mean", "value": 0.104, "unit": "µM"}, {"measurement": "Cmax", "setting": "[7]; 1 mg, fed (high-fat meal), read-out: Cmax, mean", "value": 0.056, "unit": "µM"}, {"measurement": "Cmax", "setting": "[7]; 2 mg, PN002/Part I, males 55-75 y, single 2 mg, morning fasted, read-out: Cmax", "value": 0.198, "unit": "µM"}, {"measurement": "Cmax", "setting": "[7]; 8 mg, PN002/Part I, males 55-75 y, single 8 mg, morning fasted, read-out: Cmax", "value": 0.708, "unit": "µM"}, {"measurement": "Cmax", "setting": "[7]; 8 mg, single 8 mg CX-8998, PN002/Part I middle-aged and elderly males, read-out: Cmax", "value": 0.708, "unit": "µM"}, {"measurement": "AUC(0-t)", "setting": "[7]; 12 mg, PN002 Part 2, 12 mg, 1 dose", "value": 4.99, "unit": "µM·h"}, {"measurement": "Cmax", "setting": "[7]; 12 mg, PN002 Part 2, 12 mg, 1 dose, read-out: Cmax", "value": 0.798, "unit": "µM"}, {"measurement": "AUC(0-t)", "setting": "[7]; 16 mg, PN001 Part 1, 16 mg, 1 dose", "value": 8.52, "unit": "µM·h"}, {"measurement": "Cmax", "setting": "[7]; 18 mg, PN001/Part II, males 22-39 y, single 18 mg, morning fasted, read-out: Cmax", "value": 1.18, "unit": "µM"}, {"measurement": "AUC(0-t)", "setting": "[7]; 18 mg, PN001 Part 2, 18 mg, 1 dose", "value": 9.93, "unit": "µM·h"}, {"measurement": "Cmax", "setting": "[7]; 18 mg, PN001 Part 2, 18 mg, 1 dose, read-out: Cmax", "value": 1.18, "unit": "µM"}, {"measurement": "Cmax", "setting": "[7]; 18 mg, PN002/Part I, males 55-75 y, single 18 mg, morning fasted, read-out: Cmax", "value": 1.33, "unit": "µM"}, {"measurement": "AUC(0-t)", "setting": "[7]; 18 mg, PN002 Part 1, 18 mg, 1 dose", "value": 9.44, "unit": "µM·h"}, {"measurement": "Cmax", "setting": "[7]; 18 mg, PN002 Part 1, 18 mg, 1 dose, read-out: Cmax", "value": 1.33, "unit": "µM"}, {"measurement": "Cmax", "setting": "[7]; 24 mg, PN001/Part I, males 20-40 y, single 24 mg evening, read-out: Cmax", "value": 1.37, "unit": "µM"}, {"measurement": "AUC(0-t)", "setting": "[7]; Average of studies, dose 16, 1 dose", "value": 8.22, "unit": "µM·h"}, {"measurement": "Cmax", "setting": "[7]; Average of studies, dose 16, 1 dose, read-out: Cmax", "value": 1.06, "unit": "µM"}, {"measurement": "Mean Cmax higher than in younger male subjects", "setting": "[7]; middle-aged and elderly female, 8 mg", "value": 6, "unit": "%"}, {"measurement": "Mean Cmax higher than in younger male subjects", "setting": "[7]; middle-aged and elderly male, 8 mg", "value": 28, "unit": "%"}, {"measurement": "Reduction in Cmax with food", "setting": "[7]; vs fasted state", "value": 45, "unit": "%"}, {"measurement": "Inhibition of BCRP transport", "setting": "[8]", "value": 57, "unit": "%"}]}
